From patent US4698327A, “Novel glycopeptide derivatives” (priority 1986, dated 1987) come the findings set out here.

Assay [1] has as its system Escherichia coli N10. Description: MIC, standard agar-dilution assay. The assay is classed as cell-based.
In assay [2] the test system is Staphylococcus aureus NRRL B313. Particulars: agar dilution.
In assay [3] the test system is Klebsiella pneumoniae KAE. As to the kind of experiment: MIC, standard agar-dilution assay. The class given is cell-based.
Assay [4] relates to Streptococcus pneumoniae Park 1. The class given is cell-based. As to conditions: agar dilution. On the technique in general: In agar dilution, organisms are placed on agar that contains the substance at set levels.
For assay [5], the system named is Staphylococcus aureus V41. As to the kind of experiment: MIC, standard agar-dilution assay. The class given is cell-based.
Assay [6] deals with Streptococcus sp. group D 2041. As to the kind of experiment: MIC, standard agar-dilution assay. The assay is classed as cell-based.
The subject of assay [7] is Staphylococcus aureus S13E. The class given is cell-based. As to conditions: agar dilution.
Assay [8] deals with Staphylococcus aureus X400. As to the kind of experiment: MIC, standard agar-dilution assay. The assay is classed as cell-based.
The test system of assay [9] is Staphylococcus epidermidis EPI1. The assay is classed as cell-based. Particulars: agar dilution.
For assay [10], the system named is Klebsiella pneumoniae X68. Description: MIC, standard agar-dilution assay. The assay is classed as cell-based.
The test system of assay [11] is Haemophilus influenzae 76. Description: MIC, standard agar-dilution assay. The assay is classed as cell-based.
In assay [12] the test system is Escherichia coli EC14. As to the kind of experiment: MIC, standard agar-dilution assay. The class given is cell-based.
Assay [13] deals with Streptococcus faecium ATCC 9790. As to the kind of experiment: MIC, standard agar-dilution assay. The class given is cell-based.
For assay [14], the system named is Haemophilus influenzae C.L. Description: MIC, standard agar-dilution assay. The class given is cell-based.
Assay [15] relates to Staphylococcus epidermidis 222. Description: MIC, standard agar-dilution assay. The assay is classed as cell-based.
In assay [16] the test system is Klebsiella pneumoniae X26. Description: MIC, standard agar-dilution assay. The assay is classed as cell-based.
Assay [17] concerns Streptococcus pyogenes C203. As to the kind of experiment: MIC, standard agar-dilution assay. The assay is classed as cell-based.
Assay [18] concerns Escherichia coli TEM. Description: MIC, standard agar-dilution assay. The class given is cell-based.

Structures are written as SMILES. In brackets after ≈: the same amount, converted by molar mass. Some results are limits rather than exact numbers.

As to `CCCCCCCNC1(C)CC(OC2C(Oc3c4cc5cc3Oc3ccc(cc3Cl)C(O)C(NC(=O)C(CC(C)C)N(C)CCCCCCC)C(=O)NC(CC(N)=O)C(=O)NC5C(=O)NC3C(=O)NC(C(=O)NC(C(=O)O)c5cc(O)cc(O)c5-c5cc3ccc5O)C(O)c3ccc(c(Cl)c3)O4)OC(CO)C(O)C2O)OC(C)C1O` (stereo not drawn) [Compound 12, N^van, N^leu --di(n-heptyl)vancomycin], the MIC is > 128 µg/mL in [1]; 0.5 µg/mL (≈ 0.304 µM) in assay [2]; > 128 µg/mL in [3]; 0.5 µg/mL (≈ 0.304 µM) in assay [4]; 1 µg/mL (≈ 0.608 µM) in assay [5]; 1 µg/mL (≈ 0.608 µM) in [6]. In addition, the MIC is 1 µg/mL (≈ 0.608 µM) in assay [7]; 1 µg/mL (≈ 0.608 µM) in assay [8]; 2 µg/mL (≈ 1.22 µM) in [9]; > 128 µg/mL in assay [10]; 128 µg/mL (≈ 77.8 µM) in assay [11]; > 128 µg/mL in [12]. Besides, the MIC was 1 µg/mL (≈ 0.608 µM) in [13]; > 128 µg/mL in assay [14]; 1 µg/mL (≈ 0.608 µM) in assay [15]; > 128 µg/mL in [16]; 0.5 µg/mL (≈ 0.304 µM) in assay [17]; > 128 µg/mL in assay [18].

Turning to `CCCCCCCCNC1(C)CC(OC2C(Oc3c4cc5cc3Oc3ccc(cc3Cl)C(O)C(NC(=O)C(CC(C)C)N(C)CCCCCCCC)C(=O)NC(CC(N)=O)C(=O)NC5C(=O)NC3C(=O)NC(C(=O)NC(C(=O)O)c5cc(O)cc(O)c5-c5cc3ccc5O)C(O)c3ccc(c(Cl)c3)O4)OC(CO)C(O)C2O)OC(C)C1O` (stereo not drawn) [Compound 9, N^van, N^leu --di(n-octyl)vancomycin], the MIC in assay [1] was > 128 µg/mL; in [2], 1 µg/mL (≈ 0.597 µM); in assay [3], > 128 µg/mL; in assay [4], 1 µg/mL (≈ 0.597 µM); in assay [5] it was 1 µg/mL (≈ 0.597 µM); in assay [6], 2 µg/mL (≈ 1.19 µM). In addition, the MIC in assay [7] was 1 µg/mL (≈ 0.597 µM); in assay [8], 1 µg/mL (≈ 0.597 µM); in assay [9], 4 µg/mL (≈ 2.39 µM); in assay [10], > 128 µg/mL; in assay [11], > 128 µg/mL; in assay [12], > 128 µg/mL. The MIC was 1 µg/mL (≈ 0.597 µM) in assay [13]; > 128 µg/mL in assay [14]; 2 µg/mL (≈ 1.19 µM) in assay [15]; > 128 µg/mL in [16]; 0.5 µg/mL (≈ 0.299 µM) in assay [17]; > 128 µg/mL in assay [18].

As for `CCCCCCCCCCNC1(C)CC(OC2C(Oc3c4cc5cc3Oc3ccc(cc3Cl)C(O)C3NC(=O)C(NC(=O)C5NC(=O)C(CC(N)=O)NC(=O)C(NC(=O)C(N)CC(C)C)C(O)c5ccc(c(Cl)c5)O4)c4ccc(O)c(c4)-c4c(O)cc(O)cc4C(C(=O)O)NC3=O)OC(CO)C(O)C2O)OC(C)C1O` (stereo not drawn) [Compound 26, N^van --(n-decyl)-A51568A], the MIC in assay [1] was > 128 µg/mL; in [2], 0.25 µg/mL (≈ 0.159 µM); in assay [3], > 128 µg/mL; in [4] it was 0.25 µg/mL (≈ 0.159 µM); in assay [5], 0.25 µg/mL (≈ 0.159 µM); in assay [6], 0.5 µg/mL (≈ 0.317 µM). Further, the MIC in assay [7] is 0.25 µg/mL (≈ 0.159 µM); in [8] it was 0.25 µg/mL (≈ 0.159 µM); in [9], 0.5 µg/mL (≈ 0.317 µM); in assay [10], > 128 µg/mL; in [11] it was 128 µg/mL (≈ 81.2 µM); in assay [12], > 128 µg/mL. Moreover, the MIC in assay [13] was 0.5 µg/mL (≈ 0.317 µM); in assay [14], 128 µg/mL (≈ 81.2 µM); in assay [15], 0.25 µg/mL (≈ 0.159 µM); in [16] it was > 128 µg/mL; in [17] it was 0.25 µg/mL (≈ 0.159 µM); in [18], > 128 µg/mL.

In the case of `CCCCCNC1(C)CC(OC2C(Oc3c4cc5cc3Oc3ccc(cc3Cl)C(O)C3NC(=O)C(NC(=O)C5NC(=O)C(CC(N)=O)NC(=O)C(NC(=O)C(CC(C)C)NC)C(O)c5ccc(c(Cl)c5)O4)c4ccc(O)c(c4)-c4c(O)cc(O)cc4C(C(=O)O)NC3=O)OC(CO)C(O)C2O)OC(C)C1O` (stereo not drawn) [Compound 15, N^van --(n-pentyl)vancomycin], the MIC in assay [1] is > 128 µg/mL; in assay [2], 0.5 µg/mL (≈ 0.329 µM); in [3] it was > 128 µg/mL; in [4] it was 0.125 µg/mL (≈ 0.0823 µM); in assay [5], 1 µg/mL (≈ 0.658 µM); in assay [6] it was 2 µg/mL (≈ 1.32 µM). Moreover, the MIC in [7] was 1 µg/mL (≈ 0.658 µM); in assay [8], 1 µg/mL (≈ 0.658 µM); in [9], 2 µg/mL (≈ 1.32 µM); in assay [10], > 128 µg/mL; in [11] it was 128 µg/mL (≈ 84.2 µM); in assay [12], > 128 µg/mL. The MIC is 1 µg/mL (≈ 0.658 µM) in assay [13]; 128 µg/mL (≈ 84.2 µM) in assay [14]; 1 µg/mL (≈ 0.658 µM) in [15]; > 128 µg/mL in [16]; 0.5 µg/mL (≈ 0.329 µM) in assay [17]; > 128 µg/mL in [18].

As for `CCCCCCCCCNC1(C)CC(OC2C(Oc3c4cc5cc3Oc3ccc(cc3Cl)C(O)C(NC(=O)C(CC(C)C)N(C)CCCCCCCCC)C(=O)NC(CC(N)=O)C(=O)NC5C(=O)NC3C(=O)NC(C(=O)NC(C(=O)O)c5cc(O)cc(O)c5-c5cc3ccc5O)C(O)c3ccc(c(Cl)c3)O4)OC(CO)C(O)C2O)OC(C)C1O` (stereo not drawn) [Compound 6, N^van, N^leu --di(n-nonyl)vancomycin], the MIC in assay [1] is > 128 µg/mL; in assay [2] it was 1 µg/mL (≈ 0.588 µM); in assay [3] it was > 128 µg/mL; in [4] it was 2 µg/mL (≈ 1.18 µM); in [5], 1 µg/mL (≈ 0.588 µM); in assay [6] it was 2 µg/mL (≈ 1.18 µM). The MIC in assay [7] was 2 µg/mL (≈ 1.18 µM); in assay [8], 1 µg/mL (≈ 0.588 µM); in assay [9], 4 µg/mL (≈ 2.35 µM); in assay [10] it was > 128 µg/mL; in assay [11], > 128 µg/mL; in assay [12], > 128 µg/mL. Moreover, the MIC is 1 µg/mL (≈ 0.588 µM) in [13]; > 128 µg/mL in assay [14]; 2 µg/mL (≈ 1.18 µM) in assay [15]; > 128 µg/mL in assay [16]; 1 µg/mL (≈ 0.588 µM) in assay [17]; > 128 µg/mL in assay [18].

Turning to `CCCCNC1(C)CC(OC2C(Oc3c4cc5cc3Oc3ccc(cc3Cl)C(O)C3NC(=O)C(NC(=O)C5NC(=O)C(CC(N)=O)NC(=O)C(NC(=O)C(CC(C)C)NC)C(O)c5ccc(c(Cl)c5)O4)c4ccc(O)c(c4)-c4c(O)cc(O)cc4C(C(=O)O)NC3=O)OC(CO)C(O)C2O)OC(C)C1O` (stereo not drawn) [Compound 17, N^van --(n-butyl)vancomycin], the MIC in assay [1] is > 128 µg/mL; in [2], 1 µg/mL (≈ 0.664 µM); in [3] it was > 128 µg/mL; in assay [4], 0.5 µg/mL (≈ 0.332 µM); in assay [5], 1 µg/mL (≈ 0.664 µM); in assay [6], 4 µg/mL (≈ 2.66 µM). The MIC is 1 µg/mL (≈ 0.664 µM) in [7]; 1 µg/mL (≈ 0.664 µM) in [8]; 4 µg/mL (≈ 2.66 µM) in assay [9]; > 128 µg/mL in assay [10]; 128 µg/mL (≈ 85 µM) in assay [11]; > 128 µg/mL in assay [12]. Moreover, the MIC in assay [13] was 2 µg/mL (≈ 1.33 µM); in [14], 128 µg/mL (≈ 85 µM); in [15], 2 µg/mL (≈ 1.33 µM); in assay [16] it was > 128 µg/mL; in [17], 1 µg/mL (≈ 0.664 µM); in [18], > 128 µg/mL.
